Results as given in ChEMBL document CHEMBL5465560, “Selectivity Literature for EUbOPEN Chemogenomic Library” (2024).

Legend:
[1] = molecular target: Ribosomal protein S6 kinase alpha-4 (Homo sapiens) (UniProt O75676); assay: Selectivity interaction (Upstate Kinase Profiler service (Millipore)) EUB0000056c RPS6KA4; settings: at 1 µM
[2] = molecular target: T1, Discoidin domain-containing receptor 2 (Homo sapiens) (UniProt Q16832); assay: Selectivity interaction (KinomeScan (DiscoverX)) EUB0001079a DDR2; settings: at 1 µM
T1 sequence (whole entry): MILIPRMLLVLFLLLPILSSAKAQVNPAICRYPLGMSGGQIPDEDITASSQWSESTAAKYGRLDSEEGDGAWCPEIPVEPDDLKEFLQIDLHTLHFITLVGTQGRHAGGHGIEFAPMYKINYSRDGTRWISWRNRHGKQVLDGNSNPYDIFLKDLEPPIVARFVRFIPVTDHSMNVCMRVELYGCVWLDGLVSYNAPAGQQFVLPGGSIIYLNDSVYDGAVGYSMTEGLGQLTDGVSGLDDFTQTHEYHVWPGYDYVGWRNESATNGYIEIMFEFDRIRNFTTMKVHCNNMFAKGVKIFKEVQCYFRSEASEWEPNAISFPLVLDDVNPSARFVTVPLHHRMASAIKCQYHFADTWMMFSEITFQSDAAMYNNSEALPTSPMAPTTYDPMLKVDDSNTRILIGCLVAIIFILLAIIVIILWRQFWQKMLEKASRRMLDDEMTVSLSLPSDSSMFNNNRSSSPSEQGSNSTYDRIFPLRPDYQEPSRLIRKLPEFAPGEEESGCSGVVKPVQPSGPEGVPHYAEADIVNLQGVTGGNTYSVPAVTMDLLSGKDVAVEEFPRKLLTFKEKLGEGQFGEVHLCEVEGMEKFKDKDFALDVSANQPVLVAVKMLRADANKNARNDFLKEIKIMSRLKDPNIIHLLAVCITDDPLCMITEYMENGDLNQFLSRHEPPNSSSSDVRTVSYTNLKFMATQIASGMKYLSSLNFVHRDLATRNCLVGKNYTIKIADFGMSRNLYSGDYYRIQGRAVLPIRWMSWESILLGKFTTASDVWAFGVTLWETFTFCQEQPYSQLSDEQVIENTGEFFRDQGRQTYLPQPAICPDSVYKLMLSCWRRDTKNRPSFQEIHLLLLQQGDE

[3] = molecular target: T2, Serine/threonine-protein kinase pim-1 (Homo sapiens, UniProt P11309); assay: Selectivity interaction (KinomeScan (DiscoverX)) EUB0001079a PIM1; settings: at 1 µM
T2 sequence (P11309 whole entry, looked up): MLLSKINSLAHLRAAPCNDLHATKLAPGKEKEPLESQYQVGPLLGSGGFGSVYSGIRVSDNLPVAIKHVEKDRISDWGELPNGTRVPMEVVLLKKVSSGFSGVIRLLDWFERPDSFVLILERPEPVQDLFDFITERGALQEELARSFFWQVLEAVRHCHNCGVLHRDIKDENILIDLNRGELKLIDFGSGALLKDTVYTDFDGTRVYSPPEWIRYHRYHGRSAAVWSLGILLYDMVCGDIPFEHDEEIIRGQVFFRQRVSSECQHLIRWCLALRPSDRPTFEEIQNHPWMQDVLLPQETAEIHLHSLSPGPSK

[4] = molecular target: T3, Aurora kinase A (Homo sapiens) (UniProt O14965); assay: Selectivity interaction (KinomeScan (DiscoverX)) EUB0000666a STK6; settings: at 10 µM
T3 sequence (whole entry): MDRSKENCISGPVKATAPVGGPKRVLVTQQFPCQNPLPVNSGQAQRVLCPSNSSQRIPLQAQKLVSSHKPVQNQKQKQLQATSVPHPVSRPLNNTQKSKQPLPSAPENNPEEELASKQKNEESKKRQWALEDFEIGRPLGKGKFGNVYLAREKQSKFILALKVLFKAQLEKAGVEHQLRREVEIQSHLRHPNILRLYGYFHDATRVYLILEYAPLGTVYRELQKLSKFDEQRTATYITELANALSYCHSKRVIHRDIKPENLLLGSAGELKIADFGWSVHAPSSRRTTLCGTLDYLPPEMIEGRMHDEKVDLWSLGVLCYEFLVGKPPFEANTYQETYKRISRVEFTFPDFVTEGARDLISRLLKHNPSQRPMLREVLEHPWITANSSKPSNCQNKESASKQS

[5] = molecular target: Bone morphogenetic protein receptor type-1A (Homo sapiens, UniProt P36894); assay: Selectivity interaction (KinomeScan (DiscoverX)) EUB0000666a BMPR1A; settings: at 10 µM
Sequence of Bone morphogenetic protein receptor type-1A (P36894 whole entry): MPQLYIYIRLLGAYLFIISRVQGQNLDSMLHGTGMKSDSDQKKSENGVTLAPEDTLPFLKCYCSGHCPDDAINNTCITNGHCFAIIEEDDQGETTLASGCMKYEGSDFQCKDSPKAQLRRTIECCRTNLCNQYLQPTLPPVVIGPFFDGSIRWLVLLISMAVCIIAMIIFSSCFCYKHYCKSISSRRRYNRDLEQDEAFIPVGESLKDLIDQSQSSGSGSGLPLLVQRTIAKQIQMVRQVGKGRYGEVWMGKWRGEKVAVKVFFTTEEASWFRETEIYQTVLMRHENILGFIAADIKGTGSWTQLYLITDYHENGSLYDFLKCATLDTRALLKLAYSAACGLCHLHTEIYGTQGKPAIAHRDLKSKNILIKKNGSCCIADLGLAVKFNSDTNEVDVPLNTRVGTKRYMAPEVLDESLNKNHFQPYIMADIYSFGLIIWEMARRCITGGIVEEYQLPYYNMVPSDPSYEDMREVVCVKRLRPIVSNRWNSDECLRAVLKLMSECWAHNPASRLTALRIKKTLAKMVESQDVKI

[6] = molecular target: Growth hormone secretagogue receptor type 1 (Homo sapiens, UniProt Q92847); assay: Selectivity interaction (Ghrelin receptor binding assay, human recombinant ) EUB0000877a […]
Sequence of Growth hormone secretagogue receptor type 1 (Q92847 whole entry): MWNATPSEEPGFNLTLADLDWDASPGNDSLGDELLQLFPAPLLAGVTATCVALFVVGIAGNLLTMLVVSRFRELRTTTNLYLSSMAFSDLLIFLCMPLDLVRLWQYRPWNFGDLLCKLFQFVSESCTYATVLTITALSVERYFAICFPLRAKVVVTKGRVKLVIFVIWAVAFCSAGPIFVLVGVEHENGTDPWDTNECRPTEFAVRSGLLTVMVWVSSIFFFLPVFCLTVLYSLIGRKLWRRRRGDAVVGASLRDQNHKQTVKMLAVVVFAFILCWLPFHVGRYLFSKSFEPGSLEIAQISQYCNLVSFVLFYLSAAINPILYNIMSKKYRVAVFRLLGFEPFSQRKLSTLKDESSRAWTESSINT

[7] = molecular target: Protein kinase C theta type (Homo sapiens, UniProt Q04759); assay: Selectivity interaction (KinomeScan (DiscoverX)) EUB0001049a PRKCQ; settings: at 1 µM
Sequence of Protein kinase C theta type (Q04759 whole entry, looked up): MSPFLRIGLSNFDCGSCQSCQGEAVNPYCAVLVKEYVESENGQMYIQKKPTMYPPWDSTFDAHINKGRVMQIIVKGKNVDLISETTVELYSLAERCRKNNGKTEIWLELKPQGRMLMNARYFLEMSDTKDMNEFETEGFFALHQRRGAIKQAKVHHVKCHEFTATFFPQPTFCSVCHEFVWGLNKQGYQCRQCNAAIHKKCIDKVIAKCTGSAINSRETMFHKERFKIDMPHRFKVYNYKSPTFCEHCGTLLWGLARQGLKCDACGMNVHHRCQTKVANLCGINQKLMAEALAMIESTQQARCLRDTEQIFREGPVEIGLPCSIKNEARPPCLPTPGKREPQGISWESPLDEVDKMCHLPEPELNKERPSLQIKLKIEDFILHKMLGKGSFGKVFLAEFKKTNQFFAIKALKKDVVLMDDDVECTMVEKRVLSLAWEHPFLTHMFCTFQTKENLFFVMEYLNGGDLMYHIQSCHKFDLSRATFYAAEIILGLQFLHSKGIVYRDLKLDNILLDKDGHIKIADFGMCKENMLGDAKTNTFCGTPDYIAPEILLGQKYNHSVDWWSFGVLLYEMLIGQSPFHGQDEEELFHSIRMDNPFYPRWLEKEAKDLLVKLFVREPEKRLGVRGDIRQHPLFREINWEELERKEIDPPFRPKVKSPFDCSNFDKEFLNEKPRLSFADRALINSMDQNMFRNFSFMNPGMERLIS

[8] = molecular target: Mitogen-activated protein kinase kinase kinase 11 (Homo sapiens) (UniProt Q16584); assay: Selectivity interaction (KinomeScan (DiscoverX)) EUB0000045b MAP3K11
Sequence of Mitogen-activated protein kinase kinase kinase 11 (Homo sapiens) (Q16584 whole entry, looked up): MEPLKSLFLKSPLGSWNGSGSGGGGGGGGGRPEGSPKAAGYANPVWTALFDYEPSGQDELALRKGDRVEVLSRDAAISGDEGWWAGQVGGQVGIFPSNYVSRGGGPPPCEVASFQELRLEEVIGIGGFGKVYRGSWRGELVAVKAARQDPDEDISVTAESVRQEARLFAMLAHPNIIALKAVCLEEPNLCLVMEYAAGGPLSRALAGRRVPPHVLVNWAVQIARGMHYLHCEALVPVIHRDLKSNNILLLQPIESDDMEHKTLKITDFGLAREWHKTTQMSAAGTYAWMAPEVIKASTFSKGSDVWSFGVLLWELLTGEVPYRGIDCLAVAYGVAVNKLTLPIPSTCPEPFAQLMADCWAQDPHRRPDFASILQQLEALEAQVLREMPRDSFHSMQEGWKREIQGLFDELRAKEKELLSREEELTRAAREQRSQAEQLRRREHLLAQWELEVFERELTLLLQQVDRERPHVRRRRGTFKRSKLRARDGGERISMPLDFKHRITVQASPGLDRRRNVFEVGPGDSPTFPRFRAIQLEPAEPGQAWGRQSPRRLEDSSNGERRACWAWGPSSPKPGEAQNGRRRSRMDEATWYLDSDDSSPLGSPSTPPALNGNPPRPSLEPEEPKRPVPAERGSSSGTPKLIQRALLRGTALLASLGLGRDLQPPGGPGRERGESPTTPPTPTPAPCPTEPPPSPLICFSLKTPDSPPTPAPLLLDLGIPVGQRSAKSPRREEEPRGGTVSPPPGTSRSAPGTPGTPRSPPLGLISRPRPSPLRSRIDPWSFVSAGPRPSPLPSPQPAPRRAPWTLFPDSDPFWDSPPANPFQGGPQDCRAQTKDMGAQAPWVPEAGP

[9] = molecular target: T2, Serine/threonine-protein kinase pim-1; assay: Selectivity interaction (Kinase panel (literature)) EUB0001199aCl PIM1; settings: at 1 µM
[10] = molecular target: T4, Mitogen-activated protein kinase kinase kinase 2 (Homo sapiens) (UniProt Q9Y2U5); assay: Selectivity interaction (Ambit KINOMEscan and KiNATiv profiling in Jurkat cells) EUB0000090b MAP3K2; type: cell-based; settings: at 1 µM
T4 sequence (whole entry): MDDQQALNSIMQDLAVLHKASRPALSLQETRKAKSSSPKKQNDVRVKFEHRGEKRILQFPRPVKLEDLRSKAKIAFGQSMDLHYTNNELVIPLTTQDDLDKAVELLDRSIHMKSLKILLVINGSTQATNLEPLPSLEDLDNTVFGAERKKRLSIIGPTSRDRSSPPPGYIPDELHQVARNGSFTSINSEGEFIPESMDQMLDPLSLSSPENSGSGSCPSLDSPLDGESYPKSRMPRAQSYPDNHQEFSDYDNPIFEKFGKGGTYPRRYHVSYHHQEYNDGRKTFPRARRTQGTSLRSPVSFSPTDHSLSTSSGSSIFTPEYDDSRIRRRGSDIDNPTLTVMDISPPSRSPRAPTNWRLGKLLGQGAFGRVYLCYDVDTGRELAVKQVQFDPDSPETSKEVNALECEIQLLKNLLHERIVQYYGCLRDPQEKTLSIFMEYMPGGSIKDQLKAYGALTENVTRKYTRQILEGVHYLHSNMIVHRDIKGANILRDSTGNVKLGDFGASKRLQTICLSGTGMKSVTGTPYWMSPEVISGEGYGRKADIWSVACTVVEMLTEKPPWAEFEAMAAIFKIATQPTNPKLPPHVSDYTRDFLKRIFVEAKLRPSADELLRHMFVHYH

[11] = molecular target: T5, Mitogen-activated protein kinase 12 (Homo sapiens) (UniProt P53778); assay: Selectivity interaction (ActivX KiNativ screen (ex vivo kinase selectivity in human PBMCs)) EUB0001619a MAPK12; type: cell-based; settings: PBMC, at 1 µM
T5 sequence (whole entry): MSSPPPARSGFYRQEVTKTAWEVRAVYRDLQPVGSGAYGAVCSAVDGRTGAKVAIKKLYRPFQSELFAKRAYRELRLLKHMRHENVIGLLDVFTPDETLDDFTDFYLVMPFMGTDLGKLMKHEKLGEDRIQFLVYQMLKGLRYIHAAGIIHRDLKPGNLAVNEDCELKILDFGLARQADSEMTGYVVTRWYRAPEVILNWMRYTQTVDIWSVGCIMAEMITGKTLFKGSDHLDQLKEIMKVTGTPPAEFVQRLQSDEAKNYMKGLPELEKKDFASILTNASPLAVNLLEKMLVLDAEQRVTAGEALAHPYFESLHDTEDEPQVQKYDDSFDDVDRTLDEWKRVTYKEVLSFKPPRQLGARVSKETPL

[12] = molecular target: Vascular endothelial growth factor receptor 3 (Homo sapiens, UniProt P35916); assay: Selectivity interaction (KinomeScan (DiscoverX)) EUB0001619a FLT4; settings: at 1 µM
Sequence of Vascular endothelial growth factor receptor 3 (P35916 whole entry): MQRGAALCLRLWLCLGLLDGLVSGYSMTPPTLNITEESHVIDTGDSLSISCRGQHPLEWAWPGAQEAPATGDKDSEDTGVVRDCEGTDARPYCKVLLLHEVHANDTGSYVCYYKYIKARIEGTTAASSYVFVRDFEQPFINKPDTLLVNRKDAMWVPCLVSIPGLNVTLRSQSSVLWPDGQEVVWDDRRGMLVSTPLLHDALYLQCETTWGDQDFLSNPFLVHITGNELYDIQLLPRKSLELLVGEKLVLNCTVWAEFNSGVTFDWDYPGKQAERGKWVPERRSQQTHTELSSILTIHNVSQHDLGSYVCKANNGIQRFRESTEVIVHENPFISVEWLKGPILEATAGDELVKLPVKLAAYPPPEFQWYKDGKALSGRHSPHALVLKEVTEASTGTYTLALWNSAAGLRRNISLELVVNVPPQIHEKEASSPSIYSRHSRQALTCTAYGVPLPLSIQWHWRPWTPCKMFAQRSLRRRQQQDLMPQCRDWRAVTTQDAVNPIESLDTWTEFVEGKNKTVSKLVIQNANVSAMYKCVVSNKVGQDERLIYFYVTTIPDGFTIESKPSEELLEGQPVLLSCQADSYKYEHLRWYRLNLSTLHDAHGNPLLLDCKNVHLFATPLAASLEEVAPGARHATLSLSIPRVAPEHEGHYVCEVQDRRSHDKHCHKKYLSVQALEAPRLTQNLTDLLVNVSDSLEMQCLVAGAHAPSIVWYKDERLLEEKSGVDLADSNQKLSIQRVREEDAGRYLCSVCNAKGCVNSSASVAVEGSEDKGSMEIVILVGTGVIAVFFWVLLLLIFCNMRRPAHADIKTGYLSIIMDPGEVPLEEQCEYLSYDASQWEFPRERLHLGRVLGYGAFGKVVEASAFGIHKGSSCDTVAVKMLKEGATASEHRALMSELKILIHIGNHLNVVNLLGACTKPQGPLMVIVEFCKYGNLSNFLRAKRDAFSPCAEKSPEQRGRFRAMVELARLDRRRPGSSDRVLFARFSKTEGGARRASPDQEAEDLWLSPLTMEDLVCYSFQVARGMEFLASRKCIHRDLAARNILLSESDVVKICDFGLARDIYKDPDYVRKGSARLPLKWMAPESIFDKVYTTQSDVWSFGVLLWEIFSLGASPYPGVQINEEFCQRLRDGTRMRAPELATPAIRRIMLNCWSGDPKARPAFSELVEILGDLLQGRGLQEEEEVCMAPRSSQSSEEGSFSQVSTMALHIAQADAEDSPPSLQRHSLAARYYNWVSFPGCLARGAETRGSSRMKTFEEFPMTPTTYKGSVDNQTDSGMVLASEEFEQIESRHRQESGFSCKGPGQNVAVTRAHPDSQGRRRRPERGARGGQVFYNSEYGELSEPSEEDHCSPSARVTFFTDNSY

Sequence of Ribosomal protein S6 kinase alpha-4 (Homo sapiens) (O75676 whole entry, looked up, the tested form may be a part): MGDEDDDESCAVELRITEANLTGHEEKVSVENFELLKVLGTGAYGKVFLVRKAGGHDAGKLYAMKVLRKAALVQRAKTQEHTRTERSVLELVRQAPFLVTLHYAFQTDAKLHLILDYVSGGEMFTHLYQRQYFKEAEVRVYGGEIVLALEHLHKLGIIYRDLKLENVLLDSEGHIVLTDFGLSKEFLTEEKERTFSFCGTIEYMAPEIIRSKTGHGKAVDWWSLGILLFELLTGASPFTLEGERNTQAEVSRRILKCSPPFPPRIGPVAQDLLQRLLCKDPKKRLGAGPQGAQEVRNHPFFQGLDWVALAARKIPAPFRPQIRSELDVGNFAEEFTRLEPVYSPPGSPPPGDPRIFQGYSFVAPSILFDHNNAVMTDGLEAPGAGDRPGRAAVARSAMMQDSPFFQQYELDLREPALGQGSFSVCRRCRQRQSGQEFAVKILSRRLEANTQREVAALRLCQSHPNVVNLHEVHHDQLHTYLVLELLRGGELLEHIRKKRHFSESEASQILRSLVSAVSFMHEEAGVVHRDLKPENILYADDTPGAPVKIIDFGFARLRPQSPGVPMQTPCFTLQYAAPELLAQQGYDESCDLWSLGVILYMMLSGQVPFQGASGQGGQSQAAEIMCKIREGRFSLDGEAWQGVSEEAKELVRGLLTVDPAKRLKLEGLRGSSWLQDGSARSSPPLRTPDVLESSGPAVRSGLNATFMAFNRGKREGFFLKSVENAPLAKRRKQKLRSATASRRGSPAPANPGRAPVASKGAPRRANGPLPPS

Cc1ccc(-c2ccc3c(ccc4sc5c(c43)NC[C@@H](C)NC5=O)n2)cn1
% of inhibition [1]: -19%

Nc1cnc(N2CCc3cc(S(=O)(=O)Nc4c(F)cc(Cl)cc4F)cc(N4CCCC4=O)c32)nc1 [TP-020n]
% of control [2]: 100%
% of control [3]: 88%

O=C(NOC[C@H](O)CO)c1ccc(F)c(F)c1Nc1ccc(I)cc1F
% of control [4]: 100%
% of control [5]: 100%

CCC(=O)N1CC[C@H](Nc2ncnc3c2CN(c2cnc(OC)c(C(F)(F)F)c2)CC3)C1 [LENIOLISIB]
IC50 [6]: > 30 µM

COc1cc(Nc2nc(C)cc(-c3cnn4nc(OC)ccc34)n2)cc(C(F)(F)F)c1
% of control [7]: 94%

C=CC(=O)Nc1cc(-n2c(=O)ccc3cnc4ccc(-c5ccc(NS(C)(=O)=O)cc5)cc4c32)ccc1C
% of control ([8]; at 1 µM): 91%
% of control ([8]; at 10 µM): 87%

CN1Cc2nccc(-c3cn(C)nc3-c3ccc(F)cc3)c2C1=O
% of inhibition [9]: 4%

CN(C)C/C=C/C(=O)Nc1ccc(C(=O)N2CCCC(Nc3ncc(Cl)c(-c4c[nH]c5ccccc45)n3)C2)cc1 (stereo not drawn)
% of control [10]: 99%

N#Cc1cccc(-c2c[nH]c3ncnc(N4CCOCC4)c23)c1
% of inhibition [11]: -6%
% of control [12]: 100%
